ChEMBL document CHEMBL2417497, “Lead identification of novel and selective TYK2 inhibitors” (Eur J Med Chem, 2013)
Converted amounts (≈) assume the structure as drawn.

Key:
in vitro [1] = conditions: plasma
physchem [2] = conditions: octanol/aqueous phosphate buffered saline, pH 7.4
physchem [3] = conditions: aqueous, pH 7.4
in vitro [4] = conditions: rat, plasma
in vitro [5] = conditions: mouse, plasma
in vivo [6] = conditions: mouse, po, 5 mg/kg
in vitro [7] = conditions: human, plasma
in vivo [8] = conditions: Sprague-Dawley, rat, po, 5 mg/kg
in vivo [9] = conditions: Sprague-Dawley, rat, po, 5 mg/kg; remark: listed apart in the source

SMILES	fraction unbound (in vitro [1])	logD at 1 h (physchem [2])	solubility (physchem [3]) [µg/mL]	fraction unbound (in vitro [4])	fraction unbound (in vitro [5])	Cmax (in vivo [6]) [nM]	fraction unbound (in vitro [7])	bioavailability (in vivo [8]) [%]	Cmax (in vivo [9]) [nM]
O=C(Nc1ccncc1)c1c(Cl)cccc1Cl	0.3	2.2	630 (≈ 2360 µM)						
O=C(Nc1ccnc(NC(=O)C2CC2)c1)c1c(Cl)cccc1Cl				0.04	0.04	1600	0.05	105	2500
